Data on 2 molecules can be found in US12521364B2, “Composition for preventing or treating neuropathic pain, containing syringaresinol” (UNIVERSITY-INDUSTRY COOPERATION GROUP OF KYUNG HEE …, priority 2019, dated 2026).

One assay relates to p-ERK MAPK. Briefly: Western blot of p-ERK in BV2 cells with oxaliplatin-induced inflammatory response. It is filed as cell-based. On the procedure:
(§1) BV2 cell lines (microglia) were cultured in Dulbecco's modified Eagle's medium (DMEM; GIBCO, Grand Island, NY, USA) containing 10% fetal bovine serum (FBS; GIBCO) and 1% penicillin in a 5% CO2 incubator (37° C.). […]
(§2) Thereafter, proteins were isolated from the cells of each treatment group. […] The isolated proteins were quantified for each subject by using the Bradford (Bio-rad, USA) method using bovine serum albumin (BSA, Sigma, USA), and then 20 μg of the proteins were separated by 10% sodium dodecyl sulfate—polyacrylamide gel electrophoresis (SDS-PAGE) and transferred to polyvinylidene difluoride (PVDF) membranes (membrane, Gendepot, UK). […] The protein identification and quantitative analysis were performed using an imaging system (ChemiDoc XRS+ System, Bio-Rad).
(§3) All of the results were analyzed using the SPSS 21.0 package (SPSS Inc., Chicago, USA), and the experimental results were presented as the mean±standard deviation values. Statistical significance was validated using one-way analysis of variance (ANOVA) and then analyzed by Fisher's LSD test, and the significance probability value (p-value) was recognized only when p<0.05 and p<0.01.
For orientation: Immunoblotting shows a protein as a band on a membrane.

The subject of a further assay is iNOS. Briefly: Western blot of iNOS in BV2 cells with oxaliplatin-induced inflammatory response. It is filed as cell-based. On the procedure: as §1, §2, §3
The next assay relates to p-NF-κB. Briefly: Western blot of p-NF-κB in BV2 cells with oxaliplatin-induced inflammatory response. Format: cell-based. On the procedure: as §1, §2, §3
The test system of assay [1] is oxaliplatin-induced neuropathic pain animal models. Briefly: Mechanical allodynia (von Frey filament) in oxaliplatin-induced neuropathic pain animal models. To be noted: 10 mg/kg oral, 1 hour after administration, day 3 after oxaliplatin injection, 0.4 g von Frey filament. Format: in vivo, c57/bl6 male mice. The procedure: (§4) Oxaliplatin (Sigma-Aldrich) dissolved in a 5% glucose solution to 2 mg/mL was single-intraperitoneally administered at 6 mg/kg to twelve 5-week-old c57/bl6 male mice. Significant pain was observed from about 3 days after the first injection.
The behavior of withdrawal to a stimulus using a 0.4 g von Frey filament (Touch test 3.61, Stoelting, USA), which causes mechanical allodynia in the oxaliplatin-induced neuropathic pain animal models, was recorded and observed. To measure the withdrawal response of the paws in the animal models, the animals were put in a transparent acrylic box (7 cm×10 cm) placed on a wire mesh with a grid size of 5 mm and given time to acclimate to the environment. After about 1 hour, the acclimation of the mice was checked, and the medial part of the affected paw was stimulated with the quantified von Frey filament through a wire mesh grid. A total of 10 stimulations sufficient to slightly bend the von Frey filament were given at intervals of 20 seconds, and the number of withdrawals was measured. […]

Assay [2] has the same test system. In words: Cold allodynia (acetone test) in oxaliplatin-induced neuropathic pain animal models. It is filed as in vivo, c57/bl6 male mice. Particulars: 10 mg/kg oral, 1 hour after administration, day 3 after oxaliplatin injection, acetone to rear paws. On the procedure:
In the paclitaxel-induced neuropathic pain animal models, the response occurring after about 20 μL of acetone was applied to both rear paws of the animal models to cause cold allodynia was observed and recorded for about 15 seconds. The behaviors of withdrawal, shaking, and licking of the paws were observed and recorded. A total of three repeated trials were performed, and the average number of behaviors recorded was checked.
as §4
Cold allodynia was caused in the oxaliplatin-induced neuropathic pain animal models by way of the method in Example 2.
On the 3rd day after the oxaliplatin injection, animal models showing a statistically significant level of pain were divided into a drug group administered 10 mg/kg syringaresinol (syringaresinol, n=6) and a control group orally administered 0.06% Tween 80 (vehicle, n=6), and then were administered the corresponding drugs to thereby cause cold allodynia and mechanical allodynia after 1 hour.

Assay [3] deals with peripheral nerve injury (PNL)-induced neuropathic pain animal models. In words: Mechanical pain (von Frey filament) in peripheral nerve injury (partial sciatic nerve ligation, PNL)-induced neuropathic pain models. It is filed as in vivo, c57/bl6 male mice. To be noted: 10 mg/kg oral, PNL mice. On the procedure: The behavior of withdrawal to a stimulus using a 0.4 g von Frey filament (Touch test 3.61, Stoelting, USA), which causes mechanical allodynia in the oxaliplatin-induced neuropathic pain animal models, was recorded and observed. To measure the withdrawal response of the paws in the animal models, the animals were put in a transparent acrylic box (7 cm×10 cm) placed on a wire mesh with a grid size of 5 mm and given time to acclimate to the environment. After about 1 hour, the acclimation of the mice was checked, and the medial part of the affected paw was stimulated with the quantified von Frey filament through a wire mesh grid. A total of 10 stimulations sufficient to slightly bend the von Frey filament were given at intervals of 20 seconds, and the number of withdrawals was measured.
After twelve 5-week-old c57/bl6 male mice were respiratory anesthetized with 2.5% isoflurane, the skin on the posterior side of the right hip joint was shaved and incised, and then the sciatic nerve between the biceps femoris was found and confirmed. Thereafter, the […] was penetrated and ligated by a 7 m/m (⅜) silk thread, and then the cut skin was sutured. […]

The subject of assay [4] is paclitaxel-induced neuropathic pain animal models. In words: Cold allodynia (acetone test) in paclitaxel-induced neuropathic pain animal models. It is filed as in vivo, c57/bl6 male mice. To be noted: 10 mg/kg oral, 1 hour after administration, day 14 after first paclitaxel injection, acetone to rear paws. On the procedure:
Paclitaxel (Sigma-Aldrich) dissolved in a 1:1 solution of Cremophor EL and ethanol at 6 mg/mL was diluted to a concentration of 0.2 mg/mL, and 2 mg/kg of the diluent was intraperitoneally administered to ten 6-week-old c57/bl6 male mice four times. Injections were conducted on days 0, 2, 4, and 6 at intervals of every other day. A significant pain was observed from about 10 days after the first injection. In the paclitaxel-induced neuropathic pain animal models, the response occurring after about 20 μL of acetone was applied to both rear paws of the animal models to cause cold allodynia was observed and recorded for about 15 seconds. The behaviors of withdrawal, shaking, and licking of the paws were observed and recorded. A total of three repeated trials were performed, and the average number of behaviors recorded was checked. On the 14th day after the first injection of paclitaxel, animal models showing a statistically significant level of pain were divided into a drug group administered 10 mg/kg of syringaresinol (syringaresinol, n=5) and a control group orally administered 0.06% Tween 80 (vehicle, n=5), and then were administered the corresponding drugs to thereby cause cold allodynia after 1 hour.

The mark [5] stands for this setting: BV2 cells stimulated with 1 μg/mL oxaliplatin for 3 hours, versus normal control.
The mark [6] stands for this setting: BV2 cells, syringaresinol 10 μg/mL and 100 μg/mL for 1 hour, then 1 μg/mL oxaliplatin for 3 hours.

`O=C1[O][Pt]2([NH][C@@H]3CCCC[C@H]3[NH]2)[O]C1=O` [oxaliplatin, reference compound]: the “protein expression level of p-ERK MAPK” value in the assay with p-ERK MAPK (setting [5]) is given as “significantly increased”. The “protein expression of iNOS” value in the assay with iNOS (setting [5]) was “significantly increased”. The “protein expression level of p-NF-κB” value in the assay on p-NF-κB (setting [5]) is listed as “significantly increased”.

As to `COc1cc(C2OCC3C(c4cc(OC)c(O)c(OC)c4)OCC23)cc(OC)c1O` (stereo not shown) [syringaresinol], the “oxaliplatin-induced increase of p-ERK MAPK protein expression” value in the assay with p-ERK MAPK (setting [6]) is on record as “significantly inhibited”. In addition, in the assay on iNOS (setting [6]), the “oxaliplatin-induced increase of iNOS protein expression” value is on record as “significantly inhibited”. Also, the “mechanical allodynia compared with the control group (vehicle)” value in assay [1] is on record as “mitigated”. Also, the “oxaliplatin-induced increase of p-NF-κB protein expression” value in the assay on p-NF-κB (setting [6]) was “significantly inhibited”. In addition, the “cold allodynia compared with the control group (vehicle)” value in assay [2] and in assay [4] was “mitigated” each time. The “mechanical pain compared with the control group (vehicle)” value in assay [3] is on record as “significantly mitigated”.
